Legend:
[1] = tested on: A/Brisbane/10/2007 (H3N2); conditions: read-out: EC50, cytopathic effect inhibition
[2] = male (rat, dog), human, microsomes, 1 h
[3] = tested on: A/WSN/33 (H1N1) influenza virus; conditions: mouse, in vivo, po

| SMILES | EC50 [1] | further results |
| --- | --- | --- |
| CCOP(=O)(O)C1=C[C@@H](OC(CC)CC)[C@H](NC(C)=O)[C@@H](NC(=N)N)C1 [4c, guanidino-tamiphosphor monoethyl ester] | > 10 µM | – |
| C[C@]12CC[C@H]3[C@@H](CCC4=CC(=O)CC[C@@]43C)[C@@H]1CC[C@@H]2O [testosterone] | – | metabolized [2]: 65–100% |
| CCC(CC)O[C@@H]1C=C(P(=O)(O)O)C[C@H](NC(=N)N)[C@H]1NC(C)=O [4a, guanidino-tamiphosphor] | > 10 µM | – |
| Cc1ncc2n1-c1ccc(Cl)cc1C(c1ccccc1F)=NC2 [midazolam] | – | metabolized [2]: 65–100% |
| CCOP(=O)(OCC)C1=C[C@@H](OC(CC)CC)[C@H](NC(C)=O)[C@@H](N)C1 [3b, tamiphosphor diethyl ester] | – | protection of infected mice [3]: No significant protection |
| CCOP(=O)(O)C1=C[C@@H](OC(CC)CC)[C@H](NC(C)=O)[C@@H](N)C1 [3c, tamiphosphor monoethyl ester] | > 10 µM | – |
| CCC(CC)O[C@@H]1C=C(P(=O)(O)O)C[C@H](N)[C@H]1NC(C)=O [3a, tamiphosphor] | > 10 µM | – |
